Measurements from patent US9816104B2, “Compositions and methods for deploying a transgenic refuge as a seed blend” (priority 2000, dated 2017).

Test system: western and northern corn rootworm
Test: Field trial, corn rootworm damage by Iowa class and synergy test, Example 3
Assay type: in vivo
Text: A field trial was established and completed in accordance with pertinent protocols and in conformance with USDA notification requirements. The purpose of the trial was to determine the efficacy of transgenic event Cry3Bb.11231 in corn seed in combination with corn rootworm seed treatments using imidacloprid.
For each growing site that was selected, the plot design included the following:
The following seed treatment combinations were used for each growing area:
All seed treatments with pesticides were carried out as described in Example 1. In seed treatment number 1 and 2, Gaucho® was used for wire worm protection, but at levels sufficiently low that it would be expected to have no effect on corn rootworms (i.e., at a treatment level of about 60 gm of active/100 kg seed or 0.16 mg active/kernel), otherwise, seed receiving treatment number 2 had only transgenic event Cry3Bb.11231 and no pesticide treatment that would be expected to be effective against corn rootworm.
For seeds having treatments numbered 3 through 5, the pesticides were applied by the methods described in Example 1. For seeds having treatment numbers 6 and 7, commercially available Force® 3G and Lorsban® 15G were applied to the soil in a 5″ band at the time of sowing. The levels of application are as shown and are within the ranges recommended for standard commercial practice.
Corn seeds to be tested were planted and grown at four different locations across several Midwestern states in the United States corn belt according to the protocol described above.
The determination of damage by corn root worm was made according to the protocol described in Example 2.
Cry3Bb.11231 transgenic event was tested for possible synergy at a level of rootworm damage of 3-6. In the first test, shown in Table 2, the percentage of test plants having damage levels of from 3 to 6, on the Iowa 1-6 Scale, was determined for the control and for seeds treated with the pesticide at two levels, and for seeds having the transgenic event, alone and in combination. The following formula was then used to calculate a “synergy threshold”: (% of control Cry3Bb.11231)*(% of control imidacloprid treatment)/100.
This threshold was compared against the percent of control for the treatment combination (i.e., Cry3Bb.11231 with imidacloprid @ 400 gm/100 kg). If the treatment combination percent of control was below the threshold, then it was concluded that there was synergy.
It was believed that the measurement of rootworm damage at higher damage levels (i.e., levels 3-6) is a useful indicator that correlates with subsequent yield loss due to such damage. The reason for this is that rootworm damage at levels 1 and 2 seldom causes corn plants to fall over and lodge, and such minimal root loss is not believed to reduce the number or weight of kernels per ear. However, root damage at levels of 3 and above increasingly causes lodging and loss of yield. Therefore, it is believed that the summed damage levels of 3-6 (and in some cases, 4-6 and 5 and 6), provides a useful indication of the effect of corn rootworm damage on subsequent corn yield.

O=[N+]([O-])NC1=NCCN1Cc1ccc(Cl)nc1 [Imidacloprid, 1-[(6-chloro-3-pyridinyl)methol]-N-nitro-2-imidazolidinimime]
effectiveness against corn rootworm damage (imidacloprid at 400 gm/100 kg of seed): effective against corn rootworm damage | CORN ROOTWORM DAMAGE IN EACH IOWA CLASS (IOWA 1-6 SCALE) 1 (number of plants in Iowa class 1, imidacloprid at 400 g/100 kg seed): 3 | CORN ROOTWORM DAMAGE IN EACH IOWA CLASS (IOWA 1-6 SCALE) 2 (number of plants in Iowa class 2, imidacloprid at 400 g/100 kg seed): 15 | CORN ROOTWORM DAMAGE IN EACH IOWA CLASS (IOWA 1-6 SCALE) 3 (number of plants in Iowa class 3, imidacloprid at 400 g/100 kg seed): 36 | CORN ROOTWORM DAMAGE IN EACH IOWA CLASS (IOWA 1-6 SCALE) 4 (number of plants in Iowa class 4, imidacloprid at 400 g/100 kg seed): 21 | CORN ROOTWORM DAMAGE IN EACH IOWA CLASS (IOWA 1-6 SCALE) 5 (number of plants in Iowa class 5, imidacloprid at 400 g/100 kg seed): 5 | CORN ROOTWORM DAMAGE IN EACH IOWA CLASS (IOWA 1-6 SCALE) 6 (number of plants in Iowa class 6, imidacloprid at 400 g/100 kg seed): 0
